Source: ChEMBL document CHEMBL4043168, “The design and SAR of a novel series of 2-aminopyridine based LRRK2 inhibitors” (Bioorg Med Chem Lett, 2017)

How the values were obtained:
MDR1 = assay: Efflux ratio of apparent permeability from basolateral to apical over apical to basolateral side in MDCK cells harboring MDR1; type: ADME, cell-based, Canis lupus familiaris; details: dog
[1] = biological target: Leucine-rich repeat serine/threonine-protein kinase 2 (Homo sapiens, UniProt Q5S007, G2019S); assay: Inhibition LRRK2 G2019S mutant (unknown origin) Ser935 phosphorylation in HEK293 cells; type: cell-based
[2] = biological target: Cyclin-dependent kinase 7 (Homo sapiens) (UniProt P50613); assay: Inhibition of CDK7 labeling at conserved Lys2 (DLKPNNLLLDENGVLK) in human PBMC at 1 uM
[3] = biological target: Mitogen-activated protein kinase kinase kinase 1 (Homo sapiens) (UniProt Q13233); assay: Inhibition of MAP3K1 conserved Lys2 (DVKGANLLIDSTGQR) in human PBMC at 1 uM
[4] = biological target: Mitogen-activated protein kinase kinase kinase 2 (Homo sapiens) (UniProt Q9Y2U5); assay: Inhibition of MAP3K2 conserved Lys2 (DIKGANILR) in human PBMC at 1 uM
[5] = biological target: Serine/threonine-protein kinase Nek1 (Homo sapiens) (UniProt Q96PY6); assay: Inhibition of NEK1 conserved Lys2 (DIKSQNIFLTK) in human PBMC at 1 uM
[6] = biological target: Serine/threonine-protein kinase Nek8 (Homo sapiens) (UniProt Q86SG6); assay: Inhibition of NEK8 conserved Lys2 (DLKTQNILLDK) in human PBMC at 1 uM
[7] = biological target: Serine/threonine-protein kinase WNK3 (Homo sapiens) (UniProt Q9BYP7); assay: Inhibition of Wnk3 conserved Lys2 (DLKCDNIFITGPTGSVK) in human PBMC at 1 uM
[8] = biological target: Cyclin-dependent kinase 2 (Homo sapiens) (UniProt P24941); assay: Inhibition of CDK2 labeling at conserved Lys2 (DLKPQNLLINTEGAIK) in human PBMC at 0.1 uM
[9] = biological target: Inhibitor of nuclear factor kappa-B kinase subunit alpha (Homo sapiens) (UniProt O15111); assay: Inhibition of IKKa conserved Lys2 (DLKPENIVLQDVGGK) in human PBMC at 0.1 uM
[10] = biological target: T1, Tyrosine-protein kinase JAK3 (Homo sapiens) (UniProt P52333); assay: Inhibition of JAK3 domain2 activation Loop (IADFGLAKLLPLDKDYYVVR) in human PBMC at 0.1 uM
T1 sequence (whole entry): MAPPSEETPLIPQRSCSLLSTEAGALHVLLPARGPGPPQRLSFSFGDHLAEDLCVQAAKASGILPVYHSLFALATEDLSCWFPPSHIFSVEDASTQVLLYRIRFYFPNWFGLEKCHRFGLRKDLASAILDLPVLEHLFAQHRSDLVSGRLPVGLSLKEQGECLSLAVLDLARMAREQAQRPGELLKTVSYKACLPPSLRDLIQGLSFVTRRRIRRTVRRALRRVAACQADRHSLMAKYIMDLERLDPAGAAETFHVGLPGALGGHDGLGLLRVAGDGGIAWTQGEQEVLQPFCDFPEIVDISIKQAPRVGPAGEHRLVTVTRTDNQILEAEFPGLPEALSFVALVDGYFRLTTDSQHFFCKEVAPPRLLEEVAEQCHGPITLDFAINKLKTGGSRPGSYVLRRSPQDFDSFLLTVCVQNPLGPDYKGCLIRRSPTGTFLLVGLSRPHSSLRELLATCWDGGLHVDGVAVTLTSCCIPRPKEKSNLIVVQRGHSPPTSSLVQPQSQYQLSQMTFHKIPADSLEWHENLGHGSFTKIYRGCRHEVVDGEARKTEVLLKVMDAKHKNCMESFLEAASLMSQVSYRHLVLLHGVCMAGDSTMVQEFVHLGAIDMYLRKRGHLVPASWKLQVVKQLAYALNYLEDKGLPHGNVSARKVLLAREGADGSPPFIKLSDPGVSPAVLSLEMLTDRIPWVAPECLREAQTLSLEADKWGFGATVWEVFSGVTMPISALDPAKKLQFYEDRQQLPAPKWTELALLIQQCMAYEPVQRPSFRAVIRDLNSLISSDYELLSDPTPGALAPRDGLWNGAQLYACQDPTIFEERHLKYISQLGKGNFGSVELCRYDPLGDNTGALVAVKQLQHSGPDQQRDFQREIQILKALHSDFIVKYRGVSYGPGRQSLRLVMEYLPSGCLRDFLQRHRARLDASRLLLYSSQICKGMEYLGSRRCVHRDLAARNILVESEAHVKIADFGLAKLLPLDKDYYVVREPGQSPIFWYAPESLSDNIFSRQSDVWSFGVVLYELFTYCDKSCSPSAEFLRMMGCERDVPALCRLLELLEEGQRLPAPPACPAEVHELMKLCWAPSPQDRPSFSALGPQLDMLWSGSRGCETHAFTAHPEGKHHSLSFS

[11] = biological target: T1, Tyrosine-protein kinase JAK3 (Homo sapiens); assay: Inhibition of JAK3 domain2 conserved Lys1 (YDPLGDNTGALVAVKQLQHSGPDQQR) in human PBMC at 0.1 uM
[12] = biological target: Serine/threonine-protein kinase LATS2 (Homo sapiens) (UniProt Q9NRM7); assay: Inhibition of LATS2 conserved Lys2 (DIKPDNILIDLDGHIK) in human PBMC at 0.1 uM
[13] = biological target: T2, Serine/threonine-protein kinase 3 (Homo sapiens) (UniProt Q13188); assay: Inhibition of MST2 conserved Lys2 (DIKAGNILLNTEGHAK) in human PBMC at 0.1 uM
T2 sequence (whole entry): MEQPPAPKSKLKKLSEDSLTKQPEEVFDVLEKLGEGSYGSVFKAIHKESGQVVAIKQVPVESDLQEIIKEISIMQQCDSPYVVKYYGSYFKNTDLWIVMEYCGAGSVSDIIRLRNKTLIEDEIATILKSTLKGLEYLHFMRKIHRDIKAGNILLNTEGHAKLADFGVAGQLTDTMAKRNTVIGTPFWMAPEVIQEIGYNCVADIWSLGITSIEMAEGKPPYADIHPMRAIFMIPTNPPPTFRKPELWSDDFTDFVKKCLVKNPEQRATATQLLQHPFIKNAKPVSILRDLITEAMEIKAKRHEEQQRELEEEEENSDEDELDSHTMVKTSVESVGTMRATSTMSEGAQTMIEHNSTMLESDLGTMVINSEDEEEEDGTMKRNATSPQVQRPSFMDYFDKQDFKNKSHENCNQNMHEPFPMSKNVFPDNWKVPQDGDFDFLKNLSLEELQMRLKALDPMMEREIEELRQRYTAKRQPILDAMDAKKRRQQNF

[14] = biological target: Ribosomal protein S6 kinase alpha-2 (Homo sapiens) (UniProt Q15349); assay: Inhibition of RSK3 domain1 conserved Lys2 (DLKPENILLDEEGHIK) in human PBMC at 0.1 uM
[15] = biological target: Cyclin-dependent kinase 17 (Homo sapiens) (UniProt Q00537); assay: Inhibition of PCTAIRE2 conserved Lys2 (DLKPQNLLINEK) in human PBMC at 1 uM

Chain of Serine/threonine-protein kinase Nek1 (Homo sapiens) (Q96PY6 whole entry): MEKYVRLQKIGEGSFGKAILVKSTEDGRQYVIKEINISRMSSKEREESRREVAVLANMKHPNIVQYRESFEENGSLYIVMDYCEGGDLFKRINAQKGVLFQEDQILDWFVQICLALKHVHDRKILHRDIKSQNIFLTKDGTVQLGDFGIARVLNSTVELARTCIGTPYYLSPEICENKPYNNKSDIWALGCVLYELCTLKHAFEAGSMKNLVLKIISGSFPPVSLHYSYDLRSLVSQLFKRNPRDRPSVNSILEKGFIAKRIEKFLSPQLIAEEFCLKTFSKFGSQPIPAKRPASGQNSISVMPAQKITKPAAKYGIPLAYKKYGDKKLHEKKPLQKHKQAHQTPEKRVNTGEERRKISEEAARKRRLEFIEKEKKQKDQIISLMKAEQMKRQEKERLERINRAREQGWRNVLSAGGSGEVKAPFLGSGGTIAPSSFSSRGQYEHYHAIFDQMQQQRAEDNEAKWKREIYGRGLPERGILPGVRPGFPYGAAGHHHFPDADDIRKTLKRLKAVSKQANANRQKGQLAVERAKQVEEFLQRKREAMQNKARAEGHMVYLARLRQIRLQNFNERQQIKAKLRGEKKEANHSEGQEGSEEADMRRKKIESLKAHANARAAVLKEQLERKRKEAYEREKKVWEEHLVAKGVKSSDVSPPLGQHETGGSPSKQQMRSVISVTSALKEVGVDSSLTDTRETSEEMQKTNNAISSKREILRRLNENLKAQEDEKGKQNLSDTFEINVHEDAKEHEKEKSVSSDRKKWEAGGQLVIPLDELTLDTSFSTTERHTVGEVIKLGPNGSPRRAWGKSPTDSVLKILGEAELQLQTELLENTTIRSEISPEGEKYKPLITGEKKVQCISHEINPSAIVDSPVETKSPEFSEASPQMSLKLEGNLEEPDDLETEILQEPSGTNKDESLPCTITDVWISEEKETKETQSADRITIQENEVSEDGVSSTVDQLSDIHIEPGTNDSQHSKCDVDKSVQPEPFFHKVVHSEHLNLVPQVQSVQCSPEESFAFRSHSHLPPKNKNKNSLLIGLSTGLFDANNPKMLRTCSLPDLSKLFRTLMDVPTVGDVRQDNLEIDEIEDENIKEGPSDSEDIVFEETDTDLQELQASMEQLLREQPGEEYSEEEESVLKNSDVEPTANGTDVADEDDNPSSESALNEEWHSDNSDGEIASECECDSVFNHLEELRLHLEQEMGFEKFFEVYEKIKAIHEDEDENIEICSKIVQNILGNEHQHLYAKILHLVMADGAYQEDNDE
Chain of Serine/threonine-protein kinase LATS2 (Homo sapiens) (Q9NRM7 whole entry): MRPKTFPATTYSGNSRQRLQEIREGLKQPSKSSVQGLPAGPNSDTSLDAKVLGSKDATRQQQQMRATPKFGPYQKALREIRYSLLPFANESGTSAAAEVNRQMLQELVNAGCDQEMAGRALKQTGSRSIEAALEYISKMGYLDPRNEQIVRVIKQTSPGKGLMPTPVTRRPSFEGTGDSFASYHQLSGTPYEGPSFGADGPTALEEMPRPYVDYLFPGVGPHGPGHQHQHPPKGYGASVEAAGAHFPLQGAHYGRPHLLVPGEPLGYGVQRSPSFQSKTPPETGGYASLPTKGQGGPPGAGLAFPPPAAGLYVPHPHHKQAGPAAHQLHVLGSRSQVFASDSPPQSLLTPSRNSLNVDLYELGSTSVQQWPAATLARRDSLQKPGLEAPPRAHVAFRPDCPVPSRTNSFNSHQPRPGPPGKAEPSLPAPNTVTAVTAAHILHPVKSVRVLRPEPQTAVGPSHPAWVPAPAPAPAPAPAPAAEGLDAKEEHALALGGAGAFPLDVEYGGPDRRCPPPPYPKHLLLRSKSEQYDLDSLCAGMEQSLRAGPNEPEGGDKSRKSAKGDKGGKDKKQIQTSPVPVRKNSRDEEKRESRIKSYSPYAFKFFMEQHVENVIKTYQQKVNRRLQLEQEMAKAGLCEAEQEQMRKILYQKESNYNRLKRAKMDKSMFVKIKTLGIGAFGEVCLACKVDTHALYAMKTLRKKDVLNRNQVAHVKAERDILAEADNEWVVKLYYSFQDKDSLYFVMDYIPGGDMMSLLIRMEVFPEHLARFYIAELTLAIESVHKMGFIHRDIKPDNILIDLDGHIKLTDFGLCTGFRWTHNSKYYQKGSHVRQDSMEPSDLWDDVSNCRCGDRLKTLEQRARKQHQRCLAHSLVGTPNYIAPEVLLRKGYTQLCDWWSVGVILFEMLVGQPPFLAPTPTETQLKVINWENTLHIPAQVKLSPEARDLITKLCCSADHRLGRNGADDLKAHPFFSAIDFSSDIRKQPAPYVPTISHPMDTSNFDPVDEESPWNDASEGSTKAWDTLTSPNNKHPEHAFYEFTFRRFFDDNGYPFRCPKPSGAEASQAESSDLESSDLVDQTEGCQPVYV
Chain of Serine/threonine-protein kinase WNK3 (Homo sapiens) (Q9BYP7 whole entry): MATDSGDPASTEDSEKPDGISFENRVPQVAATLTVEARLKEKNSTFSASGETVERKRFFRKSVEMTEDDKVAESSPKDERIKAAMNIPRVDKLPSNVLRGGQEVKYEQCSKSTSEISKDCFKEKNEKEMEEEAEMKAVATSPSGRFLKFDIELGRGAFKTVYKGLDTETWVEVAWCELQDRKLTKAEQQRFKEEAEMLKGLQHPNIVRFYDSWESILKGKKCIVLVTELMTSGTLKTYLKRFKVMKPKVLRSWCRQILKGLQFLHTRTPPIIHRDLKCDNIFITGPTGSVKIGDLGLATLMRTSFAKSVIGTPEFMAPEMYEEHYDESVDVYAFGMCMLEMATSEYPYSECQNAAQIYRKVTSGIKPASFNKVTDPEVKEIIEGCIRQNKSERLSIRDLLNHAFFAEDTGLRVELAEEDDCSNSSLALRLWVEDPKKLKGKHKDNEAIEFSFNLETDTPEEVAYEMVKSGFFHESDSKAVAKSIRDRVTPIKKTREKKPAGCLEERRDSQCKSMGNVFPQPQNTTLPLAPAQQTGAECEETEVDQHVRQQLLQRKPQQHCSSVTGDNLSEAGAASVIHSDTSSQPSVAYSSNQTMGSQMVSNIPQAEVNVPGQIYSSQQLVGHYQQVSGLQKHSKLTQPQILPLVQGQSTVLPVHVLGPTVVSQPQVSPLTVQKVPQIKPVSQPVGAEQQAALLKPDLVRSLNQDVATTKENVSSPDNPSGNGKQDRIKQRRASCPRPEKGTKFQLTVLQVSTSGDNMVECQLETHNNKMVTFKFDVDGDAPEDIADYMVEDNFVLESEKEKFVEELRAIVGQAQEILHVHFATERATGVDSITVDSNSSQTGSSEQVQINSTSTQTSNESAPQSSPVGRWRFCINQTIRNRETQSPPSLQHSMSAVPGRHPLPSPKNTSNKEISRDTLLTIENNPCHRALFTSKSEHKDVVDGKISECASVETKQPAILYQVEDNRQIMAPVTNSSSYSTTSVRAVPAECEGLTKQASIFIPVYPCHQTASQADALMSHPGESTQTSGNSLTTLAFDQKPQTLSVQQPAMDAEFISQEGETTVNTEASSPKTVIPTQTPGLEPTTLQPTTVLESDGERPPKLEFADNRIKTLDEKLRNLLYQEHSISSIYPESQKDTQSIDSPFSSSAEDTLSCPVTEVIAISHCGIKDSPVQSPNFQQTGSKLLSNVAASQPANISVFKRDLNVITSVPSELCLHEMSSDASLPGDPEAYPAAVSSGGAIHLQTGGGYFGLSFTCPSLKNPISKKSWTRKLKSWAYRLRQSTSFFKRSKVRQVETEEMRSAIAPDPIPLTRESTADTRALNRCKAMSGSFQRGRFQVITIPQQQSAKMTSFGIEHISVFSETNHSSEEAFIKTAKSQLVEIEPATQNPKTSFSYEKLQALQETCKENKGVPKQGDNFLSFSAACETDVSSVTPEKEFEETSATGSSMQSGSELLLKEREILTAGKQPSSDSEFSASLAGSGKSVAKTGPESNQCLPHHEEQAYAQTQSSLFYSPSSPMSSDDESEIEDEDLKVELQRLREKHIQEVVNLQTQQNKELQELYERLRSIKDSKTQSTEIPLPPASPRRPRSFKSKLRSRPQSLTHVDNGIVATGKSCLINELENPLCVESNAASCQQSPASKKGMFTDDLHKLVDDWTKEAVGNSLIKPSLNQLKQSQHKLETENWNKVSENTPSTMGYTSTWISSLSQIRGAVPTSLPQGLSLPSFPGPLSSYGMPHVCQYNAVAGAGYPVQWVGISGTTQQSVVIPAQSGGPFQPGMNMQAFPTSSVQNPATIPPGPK
Chain of Cyclin-dependent kinase 7 (Homo sapiens) (P50613 whole entry): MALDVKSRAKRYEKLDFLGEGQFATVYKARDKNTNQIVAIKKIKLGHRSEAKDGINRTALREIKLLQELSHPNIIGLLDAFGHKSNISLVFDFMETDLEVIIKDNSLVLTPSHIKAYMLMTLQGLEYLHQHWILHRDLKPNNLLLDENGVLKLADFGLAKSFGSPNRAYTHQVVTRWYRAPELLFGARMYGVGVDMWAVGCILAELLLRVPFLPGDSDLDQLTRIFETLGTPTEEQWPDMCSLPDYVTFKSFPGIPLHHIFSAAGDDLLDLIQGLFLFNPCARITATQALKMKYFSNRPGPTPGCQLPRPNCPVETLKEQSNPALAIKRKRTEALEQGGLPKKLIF
Chain of Mitogen-activated protein kinase kinase kinase 2 (Homo sapiens) (Q9Y2U5 whole entry): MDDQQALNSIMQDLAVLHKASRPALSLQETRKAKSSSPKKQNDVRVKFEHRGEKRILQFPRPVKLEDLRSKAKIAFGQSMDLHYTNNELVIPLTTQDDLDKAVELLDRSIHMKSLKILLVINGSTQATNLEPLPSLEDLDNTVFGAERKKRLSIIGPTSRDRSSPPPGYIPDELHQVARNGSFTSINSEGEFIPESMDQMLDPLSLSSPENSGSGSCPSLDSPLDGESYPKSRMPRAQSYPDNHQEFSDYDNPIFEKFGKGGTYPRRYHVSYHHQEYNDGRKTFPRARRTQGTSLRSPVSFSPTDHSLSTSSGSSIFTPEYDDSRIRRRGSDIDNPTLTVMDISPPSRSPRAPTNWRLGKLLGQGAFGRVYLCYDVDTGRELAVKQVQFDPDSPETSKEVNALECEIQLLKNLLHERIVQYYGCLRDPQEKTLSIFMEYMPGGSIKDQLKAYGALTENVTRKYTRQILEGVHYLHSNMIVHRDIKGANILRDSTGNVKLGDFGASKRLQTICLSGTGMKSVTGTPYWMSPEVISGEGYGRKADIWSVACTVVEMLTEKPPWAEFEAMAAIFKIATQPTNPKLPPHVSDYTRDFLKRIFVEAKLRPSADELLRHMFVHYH

## CC(C)n1cc(-c2cc(-c3ccc(CN4CCOCC4)cc3)cnc2N)nn1
MDR1
  efflux ratio: 0.68
[1]
  IC50: 920 nM
[2]
  inhibition: -5.5%
[3]
  inhibition: 83.3%
[4]
  inhibition: 29.2%
[5]
  inhibition: 10%
[6]
  inhibition: 17.1%
[7]
  inhibition: 2.2%
[8]
  inhibition: 19.2%
[9]
  inhibition: -7.4%
[10]
  inhibition: 15.9%
[11]
  inhibition: -8%
[12]
  inhibition: 3%
[13]
  inhibition: 1.3%
[14]
  inhibition: 11.8%
[15]
  inhibition: 7.7%
